These are literature values, as cited in patent US20040116403A1, “Superoxide dismutase mimics for the treatment of ocular disorders and diseases” (priority 2002, published 2004).

Structures are written as SMILES.

For data set [1] the following is noted: rat stroke model; given either before or after induction of cerebral ischemia.
For another data set, the system named is IL-6 and MIP-2. The settings on record: rat stroke model; administration after induction of cerebral ischemia.

As for `CC[n+]1ccccc1C1=C2C=CC3=[N+]2[Mn]24[n]5c1ccc5C(c1cccc[n+]1CC)=C1C=CC(=[N+]12)C(c1cccc[n+]1CC)=c1ccc([n]14)=C3c1cccc[n+]1CC` [Compound 2], the infarct volume entry in data set [1] is “reduces infarct volume”. On to `CCn1cc[n+](CC)c1C1=C2C=CC3=[N+]2[Mn]24[n]5c1ccc5C(c1n(CC)cc[n+]1CC)=C1C=CC(=[N+]12)C(c1n(CC)cc[n+]1CC)=c1ccc([n]14)=C3c1n(CC)cc[n+]1CC` [Compound 1], for which the “expression of pro-inflammatory proteins such as IL-6 and MIP-2” value in the data set with IL-6 and MIP-2 is given as “attenuation of the increased expression of pro-inflammatory proteins”.
